Measured values from patent US8546397B2, “DNA methylation inhibitors” (The Ohio State University Research Foundation, priority 2010, dated 2013).
Entries after “also recorded” stand apart in the source; their conditions may differ. Like-named read-outs stand apart in the source and are kept apart here.

What was measured:
[1] = system: Trip10 promoter; assay: Methylation-specific PCR (MSP) of Trip10; format: cell-based; settings: MCF7 cells, 7.5 or 30 μM, 5 days of treatment
Description: (§1) Cell culture and drug treatment. […] 5-Aza and procainamide were purchased from Sigma-Aldrich. […] Control cells received DMSO vehicle.
Bisulfite conversion. Genomic DNA (0.5 μg) was bisulfite-converted by the EZ DNA Methylation Kit (Zymo) by following the manufacturer's instructions.
qMSP. Bisulfite converted DNAs were PCR-amplified by using appropriate PCR primers. Universal methylated DNAs (Millipore) were used as positive control. Col2A1 was used as a loading control and to amplify the serial diluted (1/10, 1/100 and 1/1000) bisulfite-converted universal methylated DNAs to generate the standard curve for quantization in real time PCR machine (Bio-Rad, iQ5). The methylation percentage was calculated as [(Intensity of Amplifications by Trip10 MSP primer set)×100]/(Intensity of Amplifications by Col2A1 MSP primer set) (%). The qMSP was performed in a 25 μL, of reaction mixture containing 4 μL of template (bisulfate treated DNA), 2 μL of primer pair (2.5 μM), 12.5 μL of 2× reaction buffer (SYBR Green real time PCR Master Mix, Toyobo), and 6.5 μL of H2O.

[2] = system: GSTp1; assay: Methylation-specific PCR (MSP) of GSTp1; format: cell-based; settings: MCF7 cells, 7.5 or 30 μM, 5 days of treatment
[3] = system: Trip10 promoter methylation (EGFP expression) in MCF7 cells; settings: for inhibition of EGFP expression (DNA demethylation) in library screening: each compound at 7.5 μM, MCF7 reporter cells; for EGFP expression levels relative to DMSO control: transfected MCF7 cells, different concentrations, 5-day treatment, fluorescence microscopy
[4] = system: MCF7 cells
Description: (§2) MCF7 breast cancer cells, obtained from American Type Culture Collection, were grown in Minimal Essential Medium (MEM; Invitrogen), supplemented with 10% FBS, 2 mM L-glutamine, and 100 μg/ml penicillin/streptomycin. Cells were cultured at 37° C. in a humidified incubator containing 5% CO2. Medium changes were performed twice weekly and cell passages were performed at 90% confluence. To maintain the two-component constructs in MCF7 cells, 200 μg/mL of hygromycin B (Invitrogen) and 500 μg/mL of Geneticin (G418, Calbiochem) were included in culture medium. 5-Aza and procainamide were purchased from Sigma-Aldrich. Compounds being tested were dissolved in DMSO as stock solutions, and added to culture medium with final DMSO concentrations of 0.3% and 1.2% (v/v) for 7.5 μM and 30 μM of testing drugs, respectively. Control cells received DMSO vehicle. During the 5-day treatment period, medium was changed on the third day of treatment along with the addition of 17β-estradiol (E2, 10 ng/ml).
(§3) Cell viability was assessed using MTT [3-(4,5-dimethylthiazol-2-yl)-2,5-diphenyl-2H-tetrazolium bromide, Sigma-Aldrich) in six replicates. MCF7 cells were seeded at 4,000 cells per well in 96-well plates, and treated with test agents at different concentrations. […] Reduced MTT was solubilized in 200 μl/well of DMSO for determination of absorbance of 595 nm using a microplate reader.

[5] = system: EGFP expression in MCF7 cells; assay: Western blot analysis of EGFP expression; format: cell-based; settings: 7.5 μM, 5 days
Description: as §1
Western blotting. Equal amounts of protein in cell lysates were separated in 10% SDS polyacrylamide gels and then transblotted to nitrocellulose membranes. After blocking with non-fat milk, the membrane was washed and incubated with antibodies against GFP (Abeam) or (β-actin (Sigma-Aldrich). The membrane was washed, and then incubated with anti-rabbit immunoglobulin G-horseradish peroxidase. After final wash, the proteins were visualized by enhanced chemiluminescence. Immunoblotting data were analyzed by NIH Image.
In another set of experiment, cells were treated with 7.5 μM of candidate drugs for 5 days, then the cell lysates were harvested and subjected to Western blot. […] The inconsistence between the Western blot result versus the ELISA/images is not immediately clear. Results obtained from ELISA and Western blot confirmed that IM25 is an effective demethylation agent in inhibiting EGFP expression.

[6] = system: EGFP expression in MCF7 cells; assay: GFP ELISA of EGFP expression in the two-component reporter system; format: cell-based
Description: as §1
ELISA. Enzyme-linked immunosorbent assay (ELISA) was performed using the GFP ELISA kit (Cell Biolabs, San Diego, Calif.) according to the manufacture's instruction.

[7] = system: genome-wide methylation in MCF7 cells; assay: Differential Methylation Hybridization (DMH) array, genome-wide methylation; format: cell-based
Description: Differential Methylation Hybridization (DMH) Array. DMH was performed according to a reported procedure. Yan et al., J Nutr, 132(8 Suppl): p. 2430S-2434S (2002). Amplicons prepared from control (vehicle-treated) MCF7 cells were labeled with Cy5 and the amplicons prepared from drug-treated cells were labeled with Cy3. Labeled DNAs were co-hybridized onto 244K Agilent promoter array. Array hybridization results were normalized with LOWESS and a cutoff of 4 folds was used.
Statistics. ELISA and MTT results were analyzed by F-test. Significant demethylated loci were confirmed by ANOVA from DMH results. Linear regression was used to deduce the global methylation states before and after the demethylation agent treatment.

[8] = system: cancer cell growth; settings: Lee et al., J. Biol. Chem. 280 (2005); cited from earlier work
[9] = system: MCF7 cells; assay: MTT cell viability assay; settings: 5-day treatment, dose range
Description: as §2, §3

SMILES	methylation level of Trip10 [1]	methylation level of GSTp1 [2]	inhibition of EGFP expression (DNA demethylation) in library screening [3]	morphological changes, light microscopy (Vis) [3]	EGFP expression levels relative to DMSO control [3]	suppression of MCF7 cell viability [4]	protein level of EGFP [5]	demethylation potency in terms of inhibiting the EGFP expression [6]	global (genome-wide) demethylation ([7]; MCF7 cells, 7.5 μM)	more demethylated loci than after 5-Aza treatment ([7]; out of 244K target loci in Agilent array, significant by ANOVA)	concentration required to be effective in DNA demethylation in suppressing cancer cell growth [8]	suppression of MCF7 cell viability [9]
COc1ccc(O)c(C(C)=O)c1 [CI-4-1]	decreases the methylation level of both genes, but to a lesser extent; also recorded: weaker effect in demethylating Trip10 promoter	decreases the methylation level of both genes, but to a lesser extent; also recorded: significantly reduced the methylation level of GSTp1	high activity									
Nc1ncn([C@H]2C[C@H](O)[C@@H](CO)O2)c(=O)n1 [Compound 5-Aza, 5-aza-2′-deoxycytidine]	weaker effect in demethylating Trip10 promoter	significantly reduced the methylation level of GSTp1		did not cause morphological changes	dose-dependent, repressive effects on EGFP expression levels	did not cause morphological changes [light microscopy (Vis)] or suppression of cell viability						
O=S(=O)(c1ccc(Br)cc1)N1CCNCC1 [IM9]							significantly inhibited					
COc1ccc(S(=O)(=O)N2CCNCC2)cc1OC [IM25]	greatest potency in facilitating the demethylation of both Trip10 and GSTp1; also recorded: weaker effect in demethylating Trip10 promoter	greatest potency in facilitating the demethylation of both Trip10 and GSTp1; also recorded: significantly reduced the methylation level of GSTp1	high activity				substantially suppressed	greater demethylation potency than 5-Aza	able to cause global demethylation in MCF7 cells	5,506 loci		
CCN(CC)CCNC(=O)c1ccc(N)cc1 [procainamide]	weaker effect in demethylating Trip10 promoter	significantly reduced the methylation level of GSTp1		did not cause morphological changes	dose-dependent, repressive effects on EGFP expression levels						≥ 50 µM	did not cause morphological changes [light microscopy (Vis)] or suppression of cell viability
